# Measured values taken from patent US20220331267A1, “METHODS AND COMPOSITIONS FOR TREATMENT OF DEMYELINATING DISORDERS” (Rush University Medical Center, priority 2019, published 2022).
# Tests used:
# GFP-PPARα LBD = biological target: T1, GFP-PPARα LBD (Homo sapiens, UniProt Q07869); assay: GFP-affinity purification of cerebellar lysate with GFP-PPARα LBD, then EI-GCMS; type: binding; conditions: PPARα pulled-down cerebellar lysate
# T1 construct: incubated with recombinant GFP-PPARα LBD and GFP-PPARβ LBD proteins
# T1 sequence (Q07869 239-466 limits assumed): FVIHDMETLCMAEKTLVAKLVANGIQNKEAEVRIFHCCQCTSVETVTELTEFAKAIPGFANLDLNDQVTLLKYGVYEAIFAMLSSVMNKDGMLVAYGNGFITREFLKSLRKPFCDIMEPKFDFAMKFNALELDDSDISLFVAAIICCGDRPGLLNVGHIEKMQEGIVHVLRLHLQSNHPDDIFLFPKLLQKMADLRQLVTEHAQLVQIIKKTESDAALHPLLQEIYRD
# Description: Identification of unique cerebellar ligands of PPARβ: PPARβ regulates the expression of myelin genes in vitro in cultured oligodendrocytes (19). However, it is not known if PPARβ regulates the expression of these genes in cerebellum, one of the heavily myelinated regions of the brain. To test the expression of myelin proteins, first we performed dual immunofluorescence analyses of myelin marker MBP together with PPARβ in the cerebellar tissue of wild-type (n=3), Pparb-null (n=3) and Ppara-null (n=3) mice. […] Moreover, DAB immunostaining of MBP and immunoblot analyses of other myelin genes including PLP and MOG have corroborated that PPARβ indeed is involved in the expression of myelin genes in cerebellum. […] To test that, we performed a GFP-based affinity purification procedure (25,29) in which cerebellar lysate of wild-type cerebellum was incubated with recombinant GFP-PPARα LBD and GFP-PPARβ LBD proteins, then passed through GFP column, eluted, fractionated with chloroform-methanol procedure, and finally analyzed for small molecules in the chloroform fraction with electron ionization gas chromatography (EI-GCMS) method as described elsewhere (29). […] Accordingly, we detected two matching bands of both GFP-PPARαLBD and GFP-PPARβLBD, both having mol. wt. of 64 kDa, negating the possibility of unequal loading of sample in MS column. […]
# PPARβ LBD = biological target: T2, PPARβ LBD (Homo sapiens, UniProt Q03181); assay: TR-FRET (Lanthascreen PPAR-β coactivator assay)
# T2 sequence (Q03181 211-439 limits assumed): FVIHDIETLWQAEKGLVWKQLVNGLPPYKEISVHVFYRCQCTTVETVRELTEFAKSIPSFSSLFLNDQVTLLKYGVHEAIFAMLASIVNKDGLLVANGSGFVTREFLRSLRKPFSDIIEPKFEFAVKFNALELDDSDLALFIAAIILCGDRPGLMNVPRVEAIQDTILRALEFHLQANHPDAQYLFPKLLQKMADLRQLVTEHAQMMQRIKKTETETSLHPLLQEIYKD
# Procedure: The shift of each melting curve was calculated by subtracting the melting temperature (Tm) of PPARβ protein+ligand with Tm of PPARβ protein alone. Any shift (ΔTm) with more than 2° C. would be considered as significant.
# TR-FRET analysis: TR-FRET assay was performed using Lanthascreen TR-FRET PPAR-β coactivator assay kit (Cat #PV4685). […] The entire reaction was set up in corning 96 well-plate followed by incubation in a dark place for 30 mins, and then analyzed “Victor X5” machine equipped with dichroic mirror. The excitation wavelength and emission wavelength were set at 340 nm and 540 nm wavelength respectively.
# GFPflpparβ = biological target: T3, GFPflpparβ (Mus musculus, UniProt P35396); assay: GFP-affinity purification and GCMS of Pparb-null OPCs transduced with GFPflpparβ; type: binding
# T3 construct: host or cells: Pparb-null mouse primary OPCs (lentiviral transduction)
# T3 sequence (P35396 1-440): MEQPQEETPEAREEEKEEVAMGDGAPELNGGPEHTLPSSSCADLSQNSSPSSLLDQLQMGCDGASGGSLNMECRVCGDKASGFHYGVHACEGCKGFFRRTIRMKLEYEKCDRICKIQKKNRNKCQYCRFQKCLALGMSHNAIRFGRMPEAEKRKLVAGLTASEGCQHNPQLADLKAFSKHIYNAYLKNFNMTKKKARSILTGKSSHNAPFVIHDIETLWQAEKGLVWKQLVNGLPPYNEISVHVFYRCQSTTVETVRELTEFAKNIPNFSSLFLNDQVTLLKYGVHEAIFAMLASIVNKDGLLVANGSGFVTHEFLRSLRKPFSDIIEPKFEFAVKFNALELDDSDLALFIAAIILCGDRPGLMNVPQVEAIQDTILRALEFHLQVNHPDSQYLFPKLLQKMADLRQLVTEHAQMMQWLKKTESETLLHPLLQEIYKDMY
# Description: Therefore, next, we wanted to confirm these interactions in vitro in a cell-bound system. To test that, Pparb-null mouse primary OPCs were isolated from P1 murine neonates, infected with viral particles of GFP, GFPflpparb, GFPV304Mpparb, GFPH412Lpparb constructs for 48 hrs. After that, OPCs were homogenized, passed through the GFP-affinity column, eluted, fractionated with chloroform-methanol, and finally analyzed with GCMS to quantify these ligands. […] Throughout these analyses, we used dodecane as an internal standard.
# Sample preparation: After treatment, mouse primary OPCs were homogenized in ice-cold nondetergent hypotonic buffer [10 mM HEPES (pH 7.9), 1.5 mM MgCl2, 10 mM KCl, 100 mM DTT, protease and phosphatase inhibitor cocktail]. After 10 min of additional incubation in the hypotonic buffer, the homogenate was centrifuged at 8,000 g at 4° C. for 10 min. […] The organic phase was collected, evaporated in the speedvac, reconstituted with 30 μL chloroform, and finally analyzed with GCMS. […] After that, the eluate was collected from the column with 5M NaCl solution, concentrated with PD-10 desalting column and analyzed for GCMS.
# mouse primary OPCs [1] = assay: Double immunofluorescence (NG2/MBP, A2B5/PLP): differentiation of OPCs to oligodendrocytes; type: cell-based; conditions: 1 μM DBB, 0.5 μM DBP, 0.5 μM MePA, 24 hrs
# Procedure: (§1) FIG. 1A-1T. The role of DBB, DBP and MePA in the differentiation of OPC into oligodendrocytes and myelination. […] Briefly, mouse primary OPCs were treated with different concentrations of molecules for 1 hr, lysed and measured for DNA probe binding activity of PPARβ. […] Benzene was included as negative control. **p<0.01 vs. control for PLP, MOG, MBP, and CNPase. Results are mean±SD of three independent experiments. (FIG. 1G) Immunoblot followed by (FIG. 1H) relative densitometric analyses of PLP and MBP in mouse primary OPCs treated with increasing concentrations of DBB for 18 hrs. Band intensity was measured with image J software and then normalized with respective actin band. *p<0.05 (=0.041) vs. PLP control and *p<0.05 (=0.026) vs. MBP control. […] (N) Mean fluorescence intensity (MFI) of MBP was measured from total 15 cells per group with three cells from 5 different images per group. […] (FIG. 1Q) Mean fluorescence intensity (MFI) of MBP was measured from total 15 cells per group with three cells from 5 different images per group. […] (FIG. 1T) Numbers of MBP-ir cells of different treatment groups were counted per sq.mm of nanofiber matrix and presented as a histogram. […]
# DBB, DBP and MePA stimulate the differentiation of OPC to oligodendrocytes and promote myelination. […] After that, cells were lysed and assessed for PPRE-luciferase activity. […]
# mouse primary OPCs [2] = assay: Myelination of OPCs on polycaprolactone nanofiber matrix (MBP staining); type: cell-based; conditions: 1 μM DBB, 0.5 μM DBP, 0.5 μM MePA
# Procedure: as §1
# The essential role of PPARβ in DBB-, DBP- and MePa-mediated differentiation of OPCs to oligodendrocytes and myelination. […] After that, PPRE-luciferase activity was assessed. […]
# GFP-PPARβ LBD = biological target: T4, GFP-PPARβ LBD (Homo sapiens, UniProt Q03181); assay: GFP-affinity purification of cerebellar lysate with GFP-PPARβ LBD, then EI-GCMS; type: binding; conditions: PPARβ pulled-down cerebellar lysate
# T4 construct: incubated with recombinant GFP-PPARα LBD and GFP-PPARβ LBD proteins
# T4 sequence (Q03181 211-439 limits assumed): T2 sequence (Q03181 211-439 limits assumed)
# Procedure: To test that, we performed a GFP-based affinity purification procedure (25,29) in which cerebellar lysate of wild-type cerebellum was incubated with recombinant GFP-PPARα LBD and GFP-PPARβ LBD proteins, then passed through GFP column, eluted, fractionated with chloroform-methanol procedure, and finally analyzed for small molecules in the chloroform fraction with electron ionization gas chromatography (EI-GCMS) method as described elsewhere (29). […] A part of the eluted fraction was electrophoresed and stained with Coomassie blue to nullify the loading error of GFP-PPARαLBD and GFP-PPARβ LBD used for affinity purification.
# GCMS analyses: Ligand detection: A JEOL GCMate II (JEOL USA, Peabody Mass.) mass spectrometer was used in ligand detection experiments. The gas chromatograph (GC) was an Agilent 6890Plus (Wilmington Del.) equipped with a G1513A auto-injector with 100 vial sample tray connected to a G1512A controller. The gas chromatography column was a fused silica capillary column with a nonpolar 5% phenyl 95% dimethylpolysiloxane phase (Agilent HP-5 ms), 30 meters long, 0.25 mm internal diameter, 0.25 μm film thickness. The carrier gas was Helium (99.9995% Research Grade) run through a STG triple filter (Restek Corp.) at a constant flow rate 1.1 mL/min. […]
# [3] = adjusted to internal standard peak
smiles,measurement,setting,value
"CCCCCCCCCCCCCCCC(=O)OC [MePA, Methyl palmitate]",% RA,GFP-PPARα LBD,0%
same,Relative abundance,GFP-PPARα LBD; [3],0
same,EC50,PPARβ LBD,72 nM
same,Adjusted Peak Area,GFPflpparβ; ligand peak area divided by dodecane peak,0.0108
same,RA,GFPflpparβ; relative abundance,1
same,differentiation of OPCs into oligodendrocytes,mouse primary OPCs [1],stimulate the differentiation of OPCs into oligodendrocytes
same,MBP-ir cell bodies per sq.mm of nanofiber matrix (maturation of oligodendrocytes),mouse primary OPCs [2],stimulated the maturation of oligodendrocytes
same,myelin formation on nanofibers,mouse primary OPCs [2]; 24 hrs,promote myelin formation
same,% RA,GFP-PPARβ LBD,40.678%
same,Relative abundance,GFP-PPARβ LBD; [3],0.4068
